Values of other authors in patent publication US8071125B2, “Transdermal patch containing isosorbide dinitrate and bisoprolol” (Beijing Kangbeide Pharmaceutical Technology Development …, priority 2005, dated 2011).

System: Patients with Primary Hypertension
Conditions: oral administration

SMILES: CC(C)NCC(O)COc1ccc(COCCOC(C)C)cc1 (stereo not shown) [Bisoprolol]
- average reduction of the heart rate after the treatment: 15.1%
